Assay results published in patent US12590062B2, “PD-1/PD-L1 inhibitors” (Gilead Sciences, Inc., priority 2017, dated 2026).

Columns and labels:
[1] = molecular target: T1, interaction between the recombinant extracellular domain (ECD) of PD-1 and native cell-bound PD-L1 (Homo sapiens, UniProt Q9NZQ7); assay: CHO/PD-L1 cell capture assay; assay type: cell-based; conditions: CHO cells overexpressing PD-L1, pre-incubated 1 hr with compound, captured on biotinylated Fc-PD-1 coated plates, 75 min at room temperature
T1 construct: expressed in transfected cells
T1 sequence (Q9NZQ7 19-290): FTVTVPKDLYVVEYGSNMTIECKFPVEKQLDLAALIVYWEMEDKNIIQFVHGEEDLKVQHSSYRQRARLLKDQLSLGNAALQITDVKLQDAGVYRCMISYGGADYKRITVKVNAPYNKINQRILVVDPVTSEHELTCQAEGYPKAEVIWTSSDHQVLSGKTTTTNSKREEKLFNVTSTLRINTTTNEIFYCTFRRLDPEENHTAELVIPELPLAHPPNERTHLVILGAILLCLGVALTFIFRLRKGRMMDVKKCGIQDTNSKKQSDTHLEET
Outline: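 EC50 values came from four-parameter fits of counts of Draq5-stained CHO-PD-L1 cells retained on plate-bound biotinylated Fc-PD-1 ECD, enumerated by high-content imaging. Cells in PBS pH 7.4 with EDTA and 2% BSA had 1 hr compound pre-incubation, then 75 min capture at room temperature.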

PD-1/PD-L1 = PD-1/PD-L1 (Homo sapiens, UniProt Q9NZQ7); assay: PD-1/PD-L1 biochemical protein-protein interaction assay (ALPHA); assay type: binding; conditions: 0.3 nM His tagged PD-L1, 2.5 nM biotinylated Fc-PD-1, 60 minutes at 25° C., read-out: IC50 PD-L1-PD-1 Alpha IC50-mono PD-L1-fcP-D1
PD-1/PD-L1, sequence (Q9NZQ7 19-238 limits assumed): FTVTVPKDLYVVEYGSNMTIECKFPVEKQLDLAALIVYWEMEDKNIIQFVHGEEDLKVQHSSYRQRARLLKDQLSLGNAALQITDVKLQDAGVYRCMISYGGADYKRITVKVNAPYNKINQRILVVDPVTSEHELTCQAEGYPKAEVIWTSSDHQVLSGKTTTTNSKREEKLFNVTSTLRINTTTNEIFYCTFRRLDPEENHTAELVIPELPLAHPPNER
Outline: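 His-PD-L1 ECD 0.3 nM + biotin-Fc-PD-1 2.5 nM (final), 25 mM Hepes pH 7.4, 150 mM NaCl, 3.4 mM EDTA; 60 min, 25° C; anti-His acceptor/streptavidin donor ALPHA beads; decreased signal = blocked binding; 4-parameter IC50.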

PD-1/PD-L1 interaction = molecular target: T2, PD-1/PD-L1 interaction (Homo sapiens, UniProt Q9NZQ7); assay: PD-1/PD-L1 NFAT reporter co-culture assay; assay type: cell-based; conditions: Jurkat PD-1 NFAT-luciferase cells co-cultured with aAPC-PD-L1 CHO cells, 6 hrs at 37° C.; read-out: EC50 NFAT Luciferase
T2 construct: expressed in transfected cells; host or cells: CHO cells (aAPC-PD-L1) co-cultured with Jurkat cells overexpressing PD-1 and an NFAT-luciferase reporter
T2 sequence (Q9NZQ7 19-290): as the sequence (Q9NZQ7 19-290) above
Outline: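 Luminescence (ONE-Glo) after 6 h, 37 °C co-culture reports NFAT-luciferase in PD-1 Jurkat cells, which PD-1/PD-L1 engagement suppresses. Partner cells: CHO expressing anti-CD3 and PD-L1. EC50 from four-parameter dose-response fit.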

Compound: Cc1c(COc2nc(OCc3cncnc3)c(CNC[C@@H](O)CC(=O)O)cc2Br)cccc1-c1cccc(COc2nc(OCc3cncnc3)c(CNC[C@@H](O)CC(=O)O)cc2Br)c1C [Example 126, (3S,3′S)-4,4′-((((((2,2′-dimethyl-[1,1′-biphenyl]-3,3′-diyl)bis(methylene))bis(oxy))bis(5-bromo-2-(pyrimidin-5-ylmethoxy)pyridine-6,3-diyl))bis(methylene))bis(azanediyl))bis(3-hydroxybutanoic acid)]
- EC50 [1]: 0.18 µM
- IC50 (PD-1/PD-L1): 0.0001 µM
- EC50 (PD-1/PD-L1 interaction): 0.327 µM

Compound: CNC(=O)COc1nc(OCc2cccc(-c3cccc(COc4nc(OCC(=O)NC)c(CNC[C@@H](O)CC(=O)O)cc4Br)c3C)c2C)c(Br)cc1CNC[C@@H](O)CC(=O)O [Example 147, (3S,3′S)-4,4′-((((((2,2′-dimethyl-[1,1′-biphenyl]-3,3′-diyl)bis(methylene))bis(oxy))bis(5-bromo-2-(2-(methylamino)-2-oxoethoxy)pyridine-6,3-diyl))bis(methylene))bis(azanediyl))bis(3-hydroxybutanoic acid)]
- EC50 [1]: 0.117 µM
- IC50 (PD-1/PD-L1): 0.0003 µM
- EC50 (PD-1/PD-L1 interaction): 1.2 µM

Compound: Cc1c(COc2nc(OCC(N)=O)c(CNC[C@@H](O)CC(=O)O)cc2Br)cccc1-c1cccc(COc2nc(OCC(N)=O)c(CNC[C@@H](O)CC(=O)O)cc2Br)c1C [Example 155, (3S,3′S)-4,4′-((((((2,2′-dimethyl-[1,1′-biphenyl]-3,3′-diyl)bis(methylene))bis(oxy))bis(2-(2-amino-2-oxoethoxy)-5-bromopyridine-6,3-diyl))bis(methylene))bis(azanediyl))bis(3-hydroxybutanoic acid)]
- EC50 [1]: 0.211 µM
- IC50 (PD-1/PD-L1): 0.0002 µM
- EC50 (PD-1/PD-L1 interaction): 6.49 µM

Compound: Cc1c(COc2ccc(CNC[C@@H](O)CC(=O)O)c(OCc3cncnc3)n2)cccc1-c1cccc(COc2ccc(CNC[C@@H](O)CC(=O)O)c(OCc3cncnc3)n2)c1C [Example 157, (3S,3′S)-4,4′-((((((2,2′-dimethyl-[1,1′-biphenyl]-3,3′-diyl)bis(methylene))bis(oxy))bis(2-(pyrimidin-5-ylmethoxy)pyridine-6,3-diyl))bis(methylene))bis(azanediyl))bis(3-hydroxybutanoic acid)]
- EC50 [1]: 0.0811 µM
- IC50 (PD-1/PD-L1): 0.0002 µM
- EC50 (PD-1/PD-L1 interaction): 0.465 µM

Compound: Cc1c(COc2nc(OCCN3CCOCC3)c(CNC[C@@H](O)CC(=O)O)cc2Cl)cccc1-c1cccc(COc2nc(OCCN3CCOCC3)c(CNC[C@@H](O)CC(=O)O)cc2Cl)c1C [Example 159, (3S,3′S)-4,4′-((((((2,2′-dimethyl-[1,1′-biphenyl]-3,3′-diyl)bis(methylene))bis(oxy))bis(5-chloro-2-(2-morpholinoethoxy)pyridine-6,3-diyl))bis(methylene))bis(azanediyl))bis(3-hydroxybutanoic acid)]
- EC50 [1]: 0.19 µM
- IC50 (PD-1/PD-L1): 0.0005 µM
- EC50 (PD-1/PD-L1 interaction): 0.538 µM

Compound: COc1nc(OCc2cccc(-c3cccc(COc4nc(OC)c(CNC[C@@H](O)CC(=O)O)cc4C(F)(F)F)c3C)c2C)c(C(F)(F)F)cc1CNC[C@@H](O)CC(=O)O [Example 160, (3S,3′S)-4,4′-((((((2,2′-dimethyl-[1,1′-biphenyl]-3,3′-diyl)bis(methylene))bis(oxy))bis(2-methoxy-5-(trifluoromethyl)pyridine-6,3-diyl))bis(methylene))bis(azanediyl))bis(3-hydroxybutanoic acid)]
- EC50 [1]: 0.191 µM
- IC50 (PD-1/PD-L1): 0.0006 µM
- EC50 (PD-1/PD-L1 interaction): 0.139 µM

Compound: Cc1c(COc2cc(OCc3cncc(C#N)c3)c(CNC[C@@H](O)CC(N)=O)cc2Cl)cccc1-c1cccc(COc2cc(OCc3cncc(C#N)c3)c(CNC[C@@H](O)CC(N)=O)cc2Cl)c1C [Example 165, (3S,3′S)-4,4′-((((((2,2′-dimethyl-[1,1′-biphenyl]-3,3′-diyl)bis(methylene))bis(oxy))bis(5-chloro-2-((5-cyanopyridin-3-yl)methoxy)-4,1-phenylene))bis(methylene))bis(azanediyl))bis(3-hydroxybutanamide)]
- EC50 [1]: 0.156 µM
- IC50 (PD-1/PD-L1): 0.0058 µM
- EC50 (PD-1/PD-L1 interaction): 0.352 µM

Compound: COc1nc(OCc2cccc(-c3cccc(COc4nc(OC)c(CNC[C@H](O)C(=O)O)cc4Cl)c3C)c2C)c(Cl)cc1CNC[C@H](O)C(=O)O [Example 166, (2S,2′S)-3,3′-((((((2,2′-dimethyl-[1,1′-biphenyl]-3,3′-diyl)bis(methylene))bis(oxy))bis(5-chloro-2-methoxypyridine-6,3-diyl))bis(methylene))bis(azanediyl))bis(2-hydroxypropanoic acid)]
- EC50 [1]: 0.0416 µM
- IC50 (PD-1/PD-L1): 0.002 µM
- EC50 (PD-1/PD-L1 interaction): 0.139 µM

Compound: COc1nc(OCc2cccc(-c3cccc(COc4cc(OCc5cncc(C#N)c5)c(CNC[C@@H](O)CC(=O)O)cc4Cl)c3C)c2C)ccc1CNC[C@@H](O)CC(=O)O [Example 203, (S)-4-(((6-((3′-((4-((((S)-3-Carboxy-2-hydroxypropyl)amino)methyl)-2-chloro-5-((5-cyanopyridin-3-yl)methoxy)phenoxy)methyl)-2,2′-dimethyl-[1,1′-biphenyl]-3-yl)methoxy)-2-methoxypyridin-3-yl)methyl)amino)-3-hydroxybutanoic acid]
- EC50 [1]: 0.317 µM
- IC50 (PD-1/PD-L1): 0.001 µM
- EC50 (PD-1/PD-L1 interaction): 0.696 µM

Compound: Cc1c(COc2cc(OCc3cncc(C#N)c3)c(CNCCO)cc2Cl)cccc1-c1cccc2c1CCN2C(=O)c1ccc(CNCCO)c(OCc2cncc(C#N)c2)c1 [Example 205, 5-((4-Chloro-5-((3-(1-(3-((5-cyanopyridin-3-yl)methoxy)-4-(((2-hydroxyethyl)amino)methyl)benzoyl)indolin-4-yl)-2-methylbenzyl)oxy)-2-(((2-hydroxyethyl)amino)methyl)phenoxy)methyl)nicotinonitrile]
- EC50 [1]: 0.394 µM
- IC50 (PD-1/PD-L1): 0.0069 µM
- EC50 (PD-1/PD-L1 interaction): 1.43 µM

Compound: Cc1c(COc2cc(OCc3cncc(C#N)c3)c(CNC[C@@H](O)CC(=O)O)cc2Cl)cccc1-c1cccc2c1CCN2C(=O)c1ccc(CNC[C@@H](O)CC(=O)O)c(OCc2cncc(C#N)c2)c1 [Example 206, (S)-4-((4-(4-(3-((4-((((S)-3-Carboxy-2-hydroxypropyl)amino)methyl)-2-chloro-5-((5-cyanopyridin-3-yl)methoxy)phenoxy)methyl)-2-methylphenyl)indoline-1-carbonyl)-2-((5-cyanopyridin-3-yl)methoxy)benzyl)amino)-3-hydroxybutanoic acid]
- EC50 [1]: 0.161 µM
- IC50 (PD-1/PD-L1): 0.0002 µM
- EC50 (PD-1/PD-L1 interaction): 0.672 µM

Compound: COc1nc(OCc2cccc(-c3cccc(COc4nc(OC)c(CNC[C@@H](O)CC(=O)O)cc4I)c3C)c2C)c(I)cc1CNC[C@@H](O)CC(=O)O [Example 241, (3S,3′S)-4,4′-((((((2,2′-dimethyl-[1,1′-biphenyl]-3,3′-diyl)bis(methylene))bis(oxy))bis(5-iodo-2-methoxypyridine-6,3-diyl))bis(methylene))bis(azanediyl))bis(3-hydroxybutanoic acid)]
- EC50 [1]: 0.166 µM
- IC50 (PD-1/PD-L1): 0.0006 µM
- EC50 (PD-1/PD-L1 interaction): 0.275 µM

Compound: Cc1c(COc2ccc(CNC[C@@H](O)CC(=O)O)c(OCc3cncc(C#N)c3)n2)cccc1-c1cccc(COc2ccc(CNC[C@@H](O)CC(=O)O)c(OCc3cncc(C#N)c3)n2)c1C [Example 242, (3S,3′S)-4,4′-((((((2,2′-dimethyl-[1,1′-biphenyl]-3,3′-diyl)bis(methylene))bis(oxy))bis(2-((5-cyanopyridin-3-yl)methoxy)pyridine-6,3-diyl))bis(methylene))bis(azanediyl))bis(3-hydroxybutanoic acid)]
- EC50 [1]: 0.129 µM
- IC50 (PD-1/PD-L1): 0.0002 µM
- EC50 (PD-1/PD-L1 interaction): 0.288 µM
